Assay results taken from patent publication US20100029681A1, “HETEROCYCLIC COMPOUNDS AS CALCIUM CHANNEL BLOCKERS” (priority 2006, published 2010).
Where two headings read alike, the source gives them in different places.

Target: T1, rat brain N-type calcium channel subunits (α1B+α2δ+β1b cDNA subunits) (Rattus norvegicus, UniProt Q02294)
T1 construct: expressed in transfected cells; host or cells: HEK 293
Assay: N-type calcium channel block, whole cell patch clamp in transfected HEK 293 cells
Assay type: cell-based
Procedure: N-type calcium channel blocking activity was assayed in human embryonic kidney cells, HEK 293, stably transfected with the rat brain N-type calcium channel subunits (α1B+α2δ+β1b cDNA subunits). Alternatively, N-type calcium channels (α1B+α2δ+β1b cDNA subunits), L-type channels (α1C+α2δ+β1b cDNA subunits) and P/Q-type channels (α1A+α2δ+β1b cDNA subunits) were transiently expressed in HEK 293 cells. Briefly, cells were cultured in Dulbecco's modified eagle medium (DMEM) supplemented with 10% fetal bovine serum, 200 U/ml penicillin and 0.2 mg/ml streptomycin at 37° C. with 5% CO2. At 85% confluency cells were split with 0.25% trypsin/1 mM EDTA and plated at 10% confluency on glass coverslips. At 12 hours the medium was replaced and the cells transiently transfected using a standard calcium phosphate protocol and the appropriate calcium channel cDNA's. Fresh DMEM was supplied and the cells transferred to 28° C./5% CO2. Cells were incubated for 1 to 2 days prior to whole cell recording.
Whole cell patch clamp experiments were performed using an Axopatch 200B amplifier (Axon Instruments, Burlingame, Calif.) linked to a personal computer equipped with pCLAMP software. The external and internal recording solutions contained, respectively, 5 mM BaCl2, 10 mM MgCl2, 10 mM HEPES, 40 mM TEACl, 10 mM glucose, 87.5 mM CsCl (pH 7.2) and 108 mM CsMS, 4 mM MgCl2, 9 mM EGTA, 9 mM HEPES (pH 7.2). Currents were typically elicited from a holding potential of −80 mV to +10 mV using Clampex software (Axon Instruments). Typically, currents were first elicited with low frequency stimulation (0.067 Hz) and allowed to stabilize prior to application of the compounds. The compounds were then applied during the low frequency pulse trains for two to three minutes to assess tonic block, and subsequently the pulse frequency was increased to 0.2 Hz to assess frequency dependent block. Data were analyzed using Clampfit (Axon Instruments) and SigmaPlot 4.0 (Jandel Scientific).

[1] = −50 mV, read-out: IC50 @ −50 mV
[2] = −80 mV, read-out: IC50 @ −80 mV

T1 sequence (Q02294 whole entry): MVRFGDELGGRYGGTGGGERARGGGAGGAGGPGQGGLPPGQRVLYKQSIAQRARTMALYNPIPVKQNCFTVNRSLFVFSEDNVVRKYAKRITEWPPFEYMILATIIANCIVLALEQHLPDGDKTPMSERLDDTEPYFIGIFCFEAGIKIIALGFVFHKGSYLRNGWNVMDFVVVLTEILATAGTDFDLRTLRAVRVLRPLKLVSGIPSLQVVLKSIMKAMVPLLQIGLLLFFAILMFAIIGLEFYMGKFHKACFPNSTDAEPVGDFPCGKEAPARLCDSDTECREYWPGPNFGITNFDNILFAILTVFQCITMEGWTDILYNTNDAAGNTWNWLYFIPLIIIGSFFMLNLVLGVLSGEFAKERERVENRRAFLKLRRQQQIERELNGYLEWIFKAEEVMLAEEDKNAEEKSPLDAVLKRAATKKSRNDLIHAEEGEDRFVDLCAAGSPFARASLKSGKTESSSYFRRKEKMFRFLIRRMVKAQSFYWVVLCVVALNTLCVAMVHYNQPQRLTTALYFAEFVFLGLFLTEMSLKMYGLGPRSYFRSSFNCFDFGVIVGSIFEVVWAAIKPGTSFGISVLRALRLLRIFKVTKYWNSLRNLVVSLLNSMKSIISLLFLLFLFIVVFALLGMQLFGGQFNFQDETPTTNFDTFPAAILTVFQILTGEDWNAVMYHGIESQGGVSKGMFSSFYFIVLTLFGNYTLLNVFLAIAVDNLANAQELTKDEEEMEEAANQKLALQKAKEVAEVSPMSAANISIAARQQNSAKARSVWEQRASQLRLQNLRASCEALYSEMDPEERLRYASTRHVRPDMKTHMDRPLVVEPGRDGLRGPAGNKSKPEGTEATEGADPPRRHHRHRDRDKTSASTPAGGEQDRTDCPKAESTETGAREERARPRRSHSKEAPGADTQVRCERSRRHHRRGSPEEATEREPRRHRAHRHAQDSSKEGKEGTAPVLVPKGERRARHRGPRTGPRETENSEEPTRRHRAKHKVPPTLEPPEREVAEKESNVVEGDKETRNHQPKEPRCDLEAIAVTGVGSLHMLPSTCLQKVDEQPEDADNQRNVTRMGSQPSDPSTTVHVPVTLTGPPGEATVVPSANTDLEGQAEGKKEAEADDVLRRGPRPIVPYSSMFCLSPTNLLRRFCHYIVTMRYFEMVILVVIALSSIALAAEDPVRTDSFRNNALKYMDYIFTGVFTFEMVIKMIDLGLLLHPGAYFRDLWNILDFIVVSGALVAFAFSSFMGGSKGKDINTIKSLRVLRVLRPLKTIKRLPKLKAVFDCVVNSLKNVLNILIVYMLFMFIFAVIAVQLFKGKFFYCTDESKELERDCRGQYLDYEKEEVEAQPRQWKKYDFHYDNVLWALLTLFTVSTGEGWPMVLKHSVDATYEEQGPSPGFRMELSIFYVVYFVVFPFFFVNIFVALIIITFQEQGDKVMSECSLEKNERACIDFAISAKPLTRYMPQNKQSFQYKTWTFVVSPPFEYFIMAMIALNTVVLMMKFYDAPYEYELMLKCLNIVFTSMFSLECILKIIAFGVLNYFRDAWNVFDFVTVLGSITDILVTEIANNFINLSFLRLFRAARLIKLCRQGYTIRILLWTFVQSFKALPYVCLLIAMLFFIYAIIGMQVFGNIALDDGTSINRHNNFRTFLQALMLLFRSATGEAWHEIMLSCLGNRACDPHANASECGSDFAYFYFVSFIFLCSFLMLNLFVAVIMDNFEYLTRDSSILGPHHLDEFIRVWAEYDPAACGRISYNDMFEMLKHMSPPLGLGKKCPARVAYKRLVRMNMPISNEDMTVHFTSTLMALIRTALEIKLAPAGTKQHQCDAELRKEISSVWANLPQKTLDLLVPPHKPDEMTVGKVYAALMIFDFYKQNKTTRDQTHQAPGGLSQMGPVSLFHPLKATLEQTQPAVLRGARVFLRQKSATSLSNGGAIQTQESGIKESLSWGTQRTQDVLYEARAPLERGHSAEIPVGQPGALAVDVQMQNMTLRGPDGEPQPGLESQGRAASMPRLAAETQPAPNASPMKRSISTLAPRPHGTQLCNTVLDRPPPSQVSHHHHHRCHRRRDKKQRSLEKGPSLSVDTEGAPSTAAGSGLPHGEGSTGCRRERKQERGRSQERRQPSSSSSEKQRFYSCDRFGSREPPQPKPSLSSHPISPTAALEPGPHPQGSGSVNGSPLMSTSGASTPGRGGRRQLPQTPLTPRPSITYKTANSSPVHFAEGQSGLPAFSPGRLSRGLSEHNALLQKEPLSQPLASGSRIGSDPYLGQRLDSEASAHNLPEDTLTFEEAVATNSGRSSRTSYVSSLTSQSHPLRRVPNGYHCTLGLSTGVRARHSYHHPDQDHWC
T1 sequence (P54290 25-944 partner limits assumed): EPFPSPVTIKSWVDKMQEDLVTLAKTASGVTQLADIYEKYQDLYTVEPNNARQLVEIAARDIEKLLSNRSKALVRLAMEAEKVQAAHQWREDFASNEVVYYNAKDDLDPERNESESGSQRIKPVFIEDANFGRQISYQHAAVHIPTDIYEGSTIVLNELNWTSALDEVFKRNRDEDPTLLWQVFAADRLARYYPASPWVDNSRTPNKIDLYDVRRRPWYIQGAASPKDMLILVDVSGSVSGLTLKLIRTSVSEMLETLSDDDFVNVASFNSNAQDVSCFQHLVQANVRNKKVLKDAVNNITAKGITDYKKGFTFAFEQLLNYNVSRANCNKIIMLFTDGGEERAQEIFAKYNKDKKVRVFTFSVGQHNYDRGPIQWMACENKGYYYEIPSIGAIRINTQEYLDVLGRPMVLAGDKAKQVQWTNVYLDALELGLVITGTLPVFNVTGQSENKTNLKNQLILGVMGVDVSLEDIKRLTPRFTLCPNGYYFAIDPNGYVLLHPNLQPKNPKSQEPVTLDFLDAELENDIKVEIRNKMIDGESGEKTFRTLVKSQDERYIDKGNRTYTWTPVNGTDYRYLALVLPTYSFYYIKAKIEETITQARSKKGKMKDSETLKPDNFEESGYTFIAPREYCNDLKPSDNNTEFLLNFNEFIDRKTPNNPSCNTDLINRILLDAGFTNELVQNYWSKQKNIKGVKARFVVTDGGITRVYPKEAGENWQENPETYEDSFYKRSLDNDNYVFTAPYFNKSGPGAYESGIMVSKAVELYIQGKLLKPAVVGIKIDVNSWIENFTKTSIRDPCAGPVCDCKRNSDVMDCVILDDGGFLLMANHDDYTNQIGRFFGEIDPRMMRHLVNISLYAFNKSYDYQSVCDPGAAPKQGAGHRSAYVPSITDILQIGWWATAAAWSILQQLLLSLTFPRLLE
T1 sequence (P54290 945-1091 partner limits assumed): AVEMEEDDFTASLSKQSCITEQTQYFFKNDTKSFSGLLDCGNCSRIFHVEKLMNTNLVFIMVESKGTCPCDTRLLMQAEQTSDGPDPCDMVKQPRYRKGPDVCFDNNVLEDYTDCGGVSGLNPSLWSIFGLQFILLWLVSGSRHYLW
T1 sequence (P54283 whole entry partner): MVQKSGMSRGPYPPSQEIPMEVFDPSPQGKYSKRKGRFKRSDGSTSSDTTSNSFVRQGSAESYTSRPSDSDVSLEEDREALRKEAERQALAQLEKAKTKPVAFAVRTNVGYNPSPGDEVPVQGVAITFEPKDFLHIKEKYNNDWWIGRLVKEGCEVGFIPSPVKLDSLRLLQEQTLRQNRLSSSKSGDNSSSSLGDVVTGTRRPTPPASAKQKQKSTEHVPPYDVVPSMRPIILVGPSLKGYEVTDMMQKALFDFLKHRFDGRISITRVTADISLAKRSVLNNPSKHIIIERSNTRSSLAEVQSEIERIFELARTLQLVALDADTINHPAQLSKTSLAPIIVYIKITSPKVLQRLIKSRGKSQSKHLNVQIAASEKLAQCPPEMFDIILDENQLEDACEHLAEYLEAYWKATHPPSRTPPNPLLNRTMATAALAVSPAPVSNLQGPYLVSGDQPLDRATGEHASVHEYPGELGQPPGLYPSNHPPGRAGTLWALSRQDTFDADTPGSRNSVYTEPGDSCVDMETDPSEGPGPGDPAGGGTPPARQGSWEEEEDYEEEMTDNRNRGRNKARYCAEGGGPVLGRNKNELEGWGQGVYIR

IC50 [1]	IC50 [2]	Compound
2560 nM	4580 nM	O=C(CN1CCN(C(c2ccc(F)cc2)c2ccc(F)cc2)CC1)Nc1nc2ccc(Cl)cc2s1 [Compound 12, 2-(4-(bis(4-fluorophenyl)methyl)piperazin-1-yl)-N-(6-chlorobenzo[d]thiazol-2-yl)acetamide]
1200 nM	3400 nM	O=C(CN1CCN(C(c2ccc(F)cc2)c2ccc(F)cc2)CC1)Nc1nccs1 [Compound 4, 2-(4-(bis(4-fluorophenyl)methyl)piperazin-1-yl)-N-(thiazol-2-yl)acetamide]
530 nM	2530 nM	O=C(CN1CCN(C(c2ccc(F)cc2)c2ccc(F)cc2)CC1)Nc1nc2ccccc2s1 [Compound 17, N-(benzo[d]thiazol-2-yl)-2-(4-(bis(4-fluorophenyl)methyl)piperazin-1-yl)acetamide]
780 nM	1950 nM	Cc1cnc(NC(=O)CN2CCN(C(c3ccccc3)c3ccccc3)CC2)s1 [Compound 5, 2-(4-benzhydrylpiperazin-1-yl)-N-(5-methylthiazol-2-yl)acetamide]
1910 nM	3540 nM	Cc1ccc(-c2csc(NC(=O)CN3CCN(C(c4ccc(F)cc4)c4ccc(F)cc4)CC3)n2)cc1 [Compound 10, 2-(4-(bis(4-fluorophenyl)methyl)piperazin-1-yl)-N-(4-p-tolylthiazol-2-yl)acetamide]
490 nM	920 nM	O=C(CN1CCN(C(c2ccc(F)cc2)c2ccc(F)cc2)CC1)Nc1nc2ccc(F)cc2s1 [Compound 2, 2-(4-(bis(4-fluorophenyl)methyl)piperazin-1-yl)-N-(6-fluorobenzo[d]thiazol-2-yl)acetamide]
530 nM	1040 nM	O=C(CN1CCN(C(c2ccc(F)cc2)c2ccc(F)cc2)CC1)Nc1ncc(Cl)s1 [Compound 8, 2-(4-(bis(4-fluorophenyl)methyl)piperazin-1-yl)-N-(5-chlorothiazol-2-yl)acetamide]

Continued, compound first:

Compound	IC50 [1]	IC50 [2]
CS(=O)(=O)c1ccc2nc(NC(=O)CN3CCN(C(c4ccccc4)c4ccccc4)CC3)sc2c1 [Compound 20, 2-(4-benzhydrylpiperazin-1-yl)-N-(6-mesylbenzo[d]thiazol-2-yl)acetamide]	1640 nM	3130 nM
O=C(CN1CCN(C(c2ccccc2)c2ccccc2)CC1)Nc1nc2ccc(F)cc2s1 [Compound 1, 2-(4-benzhydrylpiperazin-1-yl)-N-(6-fluorobenzo[d]thiazol-2-yl)acetamide]	400 nM	770 nM
O=C(CN1CCN(C(c2ccccc2)c2ccccc2)CC1)Nc1nc2ccccc2[nH]1 [Compound 14, 2-(4-benzhydrylpiperazin-1-yl)-N-(1H-benzo[d]imidazol-2-yl)acetamide]	250 nM	290 nM
Cc1ccc(-c2csc(NC(=O)CN3CCN(C(c4ccccc4)c4ccccc4)CC3)n2)cc1 [Compound 9, 2-(4-benzhydrylpiperazin-1-yl)-N-(4-p-tolylthiazol-2-yl)acetamide]	2500 nM	6400 nM
COc1ccc2nc(NC(=O)CN3CCN(C(c4ccccc4)c4ccccc4)CC3)sc2c1 [Compound 19, 2-(4-benzhydrylpiperazin-1-yl)-N-(6-methoxybenzo[d]thiazol-2-yl)acetamide]	1540 nM	3160 nM
O=C(CN1CCN(C(c2ccccc2)c2ccccc2)CC1)Nc1nc2ccc(OC(F)(F)F)cc2s1 [Compound 18, 2-(4-benzhydrylpiperazin-1-yl)-N-(6-trifluoromethoxybenzo[d]thiazol-2-yl)acetamide]	1160 nM	2900 nM
O=C(CN1CCN(C(c2ccccc2)c2ccccc2)CC1)Nc1nc2ccc(Cl)cc2s1 [Compound 11, 2-(4-benzhydrylpiperazin-1-yl)-N-(6-chlorobenzo[d]thiazol-2-yl)acetamide]	1600 nM	3400 nM
O=C(CN1CCN(C(c2ccccc2)c2ccccc2)CC1)Nc1nc2ccccc2s1 [Compound 16, 2-(4-benzhydrylpiperazin-1-yl)-N-(benzo[d]thiazol-2-yl)acetamide]	600 nM	1210 nM
